Assay results: ChEMBL document CHEMBL3045961, “Synthesis and evaluation of some pyrimidine analogs against toxoplasmosis” (Med Chem Res, 2008)
Activity calls are given as the source filed them. The rule behind the calls is not given here.

Key:
Toxoplasma gondii [1] = assay: Antiparasitic activity Toxoplasma gondii RH infected Swiss albino mouse assessed as megakaryocytes in host spleen at 0.25 mg, po administered 48 hr post-infection measured after 3 days by haematoxylin and eosin staining relative to control; type: functional, organism-based
Toxoplasma gondii [2] = assay: Antiparasitic activity Toxoplasma gondii RH infected Swiss albino mouse assessed as decrease in Toxoplasma antigen in host serum at 0.25 mg, po administered 48 hr post-infection measured after 3 days by Co-A test relative to control; type: functional, organism-based
Toxoplasma gondii [3] = assay: Antiparasitic activity against Toxoplasma gondii RH infected Swiss albino mouse assessed as decrease in tachozyte count in liver at 0.25 mg, po administered 48 hr post-infection measured after 3 days by Geimsa staining relative to control; type: functional, organism-based
Toxoplasma gondii [4] = assay: Antiparasitic activity Toxoplasma gondii RH infected Swiss albino mouse assessed as clear mononuclear cells in host liver focal granuloma at 0.25 mg, po administered 48 hr post-infection measured after 3 days by haematoxylin and eosin staining relative to control; type: functional, organism-based
Toxoplasma gondii [5] = assay: Antiparasitic activity Toxoplasma gondii RH infected Swiss albino mouse assessed as epethelioid granuloma in host spleen at 0.25 mg, po administered 48 hr post-infection measured after 3 days by haematoxylin and eosin staining relative to control; type: functional, organism-based
Toxoplasma gondii [6] = assay: Antiparasitic activity Toxoplasma gondii RH infected Swiss albino mouse assessed as decrease in host spleen necrosis at 0.25 mg, po administered 48 hr post-infection measured after 3 days by haematoxylin and eosin staining relative to control; type: functional, organism-based
Dihydrofolate reductase = molecular target: T1, Dihydrofolate reductase (Homo sapiens, UniProt P00374); assay: Inhibition of Homo sapiens (human) dihydrofolate reductase using dihydrofolate as substrate incubated for 5 min prior to substrate addition by spectrophotometric assay
T1 sequence (P00374 whole entry): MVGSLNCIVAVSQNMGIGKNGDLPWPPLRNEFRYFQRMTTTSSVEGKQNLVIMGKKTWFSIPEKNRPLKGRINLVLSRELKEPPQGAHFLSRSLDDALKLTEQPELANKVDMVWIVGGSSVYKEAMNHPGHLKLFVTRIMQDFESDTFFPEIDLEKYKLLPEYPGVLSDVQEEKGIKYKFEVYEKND

Toxoplasma gondii [7] = assay: Antiparasitic activity Toxoplasma gondii RH infected Swiss albino mouse assessed as clear lymphocytes in host liver focal granuloma at 0.25 mg, po administered 48 hr post-infection measured after 3 days by haematoxylin and eosin staining relative to control; type: functional, organism-based
Toxoplasma gondii [8] = assay: Antiparasitic activity against Toxoplasma gondii RH infected Swiss albino mouse assessed as decrease in tachozyte count in spleen at 0.25 mg, po administered 48 hr post-infection measured after 3 days by Geimsa staining relative to control; type: functional, organism-based
[9] = molecular target: T2, Bifunctional dihydrofolate reductase-thymidylate synthase (Cryptosporidium parvum, UniProt Q27552); assay: Inhibition of Cryptosporidium parvum recombinant DHFR using dihydrofolate as substrate incubated for 5 min prior to substrate addition by spectrophotometric assay
T2 sequence (Q27552 whole entry): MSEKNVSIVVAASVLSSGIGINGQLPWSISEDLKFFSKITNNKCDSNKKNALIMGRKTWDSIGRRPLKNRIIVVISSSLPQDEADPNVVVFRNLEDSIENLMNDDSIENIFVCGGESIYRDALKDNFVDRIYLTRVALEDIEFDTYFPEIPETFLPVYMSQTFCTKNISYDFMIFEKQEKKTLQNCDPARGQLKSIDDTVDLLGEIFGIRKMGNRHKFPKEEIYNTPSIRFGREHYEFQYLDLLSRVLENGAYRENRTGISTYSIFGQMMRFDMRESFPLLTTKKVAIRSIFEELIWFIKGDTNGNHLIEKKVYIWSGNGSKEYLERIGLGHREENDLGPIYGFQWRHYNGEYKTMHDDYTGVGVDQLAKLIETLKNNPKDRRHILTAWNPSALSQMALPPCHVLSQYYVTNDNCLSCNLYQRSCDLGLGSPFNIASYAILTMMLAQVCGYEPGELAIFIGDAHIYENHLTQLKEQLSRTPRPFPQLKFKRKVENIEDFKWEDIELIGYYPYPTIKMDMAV

Toxoplasma gondii [10] = assay: Antiparasitic activity Toxoplasma gondii RH infected Swiss albino mouse assessed as extramedullary hematopoiesis in host spleen at 0.25 mg, po administered 48 hr post-infection measured after 3 days by haematoxylin and eosin staining relative to control; type: functional, organism-based
Toxoplasma gondii [11] = assay: Antiparasitic activity Toxoplasma gondii RH infected Swiss albino mouse assessed as decreased parasite movement in host peritoneal exudate at 0.25 mg, po administered 48 hr post-infection measured after 3 days by light microscopic analysis; type: functional, organism-based
Toxoplasma gondii [12] = assay: Antiparasitic activity Toxoplasma gondii RH infected Swiss albino mouse assessed as increase in host spleen red pulp at 0.25 mg, po administered 48 hr post-infection measured after 3 days by haematoxylin and eosin staining relative to control; type: functional, organism-based
Toxoplasma gondii [13] = assay: Antiparasitic activity Toxoplasma gondii RH infected Swiss albino mouse assessed as decrease in host lung congestion at 0.25 mg, po administered 48 hr post-infection measured after 3 days by haematoxylin and eosin staining relative to control; type: functional, organism-based
Toxoplasma gondii [14] = assay: Antiparasitic activity Toxoplasma gondii RH infected Swiss albino mouse assessed as decrease in interstitial pneumonia at 0.25 mg, po administered 48 hr post-infection measured after 3 days by haematoxylin and eosin staining relative to control; type: functional, organism-based
Toxoplasma gondii [15] = assay: Antiparasitic activity Toxoplasma gondii RH infected Swiss albino mouse assessed as decrease in host spleen white pulp at 0.25 mg, po administered 48 hr post-infection measured after 3 days by haematoxylin and eosin staining relative to control; type: functional, organism-based
Toxoplasma gondii [16] = assay: Antiparasitic activity Toxoplasma gondii RH infected Swiss albino mouse assessed as parasite deformity in host peritoneal exudate at 0.25 mg, po administered 48 hr post-infection measured after 3 days by light microscopic analysis; type: functional, organism-based
Toxoplasma gondii [17] = assay: Antiparasitic activity Toxoplasma gondii RH infected Swiss albino mouse assessed as decrease in host liver necrosis at 0.25 mg, po administered 48 hr post-infection measured after 3 days by haematoxylin and eosin staining relative to control; type: functional, organism-based

Structure (SMILES) | IC50 (Dihydrofolate reductase) [µM] | IC50 [9] [µM] | Activity (Toxoplasma gondii [1]) | Activity (Toxoplasma gondii [2]) | Activity (Toxoplasma gondii [3]) | Activity (Toxoplasma gondii [4]) | Activity (Toxoplasma gondii [5]) | Activity (Toxoplasma gondii [6]) | Activity (Toxoplasma gondii [7]) | Activity (Toxoplasma gondii [8]) | Activity (Toxoplasma gondii [10]) | Activity (Toxoplasma gondii [11]) | Activity (Toxoplasma gondii [12]) | Activity (Toxoplasma gondii [13]) | Activity (Toxoplasma gondii [14]) | Activity (Toxoplasma gondii [15]) | Activity (Toxoplasma gondii [16]) | Activity (Toxoplasma gondii [17])
CCOC(=O)C1=C(C)N=C(SCC(=O)c2ccc(Cl)c([N+](=O)[O-])c2)NC1c1ccccc1 (centres undefined) | 3 | 2.3 | inactive | inactive | inactive | inactive | inactive | inactive | inactive | inactive | inactive | inactive | inactive | inactive | inactive | inactive | inactive | inactive
CC(=O)C1=C(C)NC(=S)NC1c1cccc(O)c1 (centres undefined) | 9.4 | 7.6 | inactive | inactive | inactive | inactive | inactive | inactive | inactive | inactive | inactive | inactive | inactive | inactive | inactive | inactive | inactive | inactive
CCOC(=O)CSC1=NC(c2ccccc2OC)C(C(=O)OCC)=C(C)N1 (centres undefined) | 7.3 | 5.1 | inactive | inactive | inactive | inactive | inactive | inactive | inactive | inactive | inactive | inactive | inactive | inactive | inactive | inactive | inactive | inactive
COc1cc(Cc2cnc(N)nc2N)cc(OC)c1OC [TRIMETHOPRIM] |  | 4 |  |  |  |  |  |  |  |  |  |  |  |  |  |  |  | 

Continued, in another order:

IC50 (Dihydrofolate reductase) [µM] | IC50 [9] [µM] | Structure (SMILES) | Activity (Toxoplasma gondii [1]) | Activity (Toxoplasma gondii [2]) | Activity (Toxoplasma gondii [3]) | Activity (Toxoplasma gondii [4]) | Activity (Toxoplasma gondii [5]) | Activity (Toxoplasma gondii [6]) | Activity (Toxoplasma gondii [7]) | Activity (Toxoplasma gondii [8]) | Activity (Toxoplasma gondii [10]) | Activity (Toxoplasma gondii [11]) | Activity (Toxoplasma gondii [12]) | Activity (Toxoplasma gondii [13]) | Activity (Toxoplasma gondii [14]) | Activity (Toxoplasma gondii [15]) | Activity (Toxoplasma gondii [16]) | Activity (Toxoplasma gondii [17])
0.58 | 4.7 | CCOC(=O)C1=C(C)NC(=S)NC1c1ccccc1 (centres undefined) | inactive | inactive | inactive | inactive | inactive | inactive | inactive | inactive | inactive | inactive | inactive | inactive | inactive | inactive | inactive | inactive
1.9 | 2.4 | CCOC(=O)C1=C(C)NC(=S)NC1c1ccccc1OC (centres undefined) | inactive | inactive | inactive | inactive | inactive | inactive | inactive | inactive | inactive | inactive | inactive | inactive | inactive | inactive | inactive | inactive
0.83 | 3.2 | CCOC(=O)CSC1=NC(c2ccccc2)C(C(=O)OCC)=C(C)N1 (centres undefined) | inactive | inactive | inactive | inactive | inactive | inactive | inactive | inactive | inactive | inactive | inactive | inactive | inactive | inactive | inactive | inactive
